Source: patent US10774051B2, “6-membered heterocyclic derivatives and pharmaceutical composition comprising the same” (Shionogi & Co., Ltd., priority 2015, dated 2020)
Where two headings read alike, the source gives them in different places.

Target: human P2X7 receptor (Homo sapiens, UniProt Q99572, R270H/Y155H)
Experiment: Evaluation of human P2X7 receptor inhibitory activity (Yo-Pro uptake, BzATP stimulation, FLIPR TETRA)
Type: cell-based
Outline: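 1321N1 cells stably expressing human P2X7 (T606C/G952A SNP variant), in HBSS buffer pH 7.4-7.5 with Yo-Pro, stimulated with BzATP; compound added 8 min after agonist. Fluorescence followed for 20 min on FLIPR; max-minus-min change gave % inhibition, IC50 by logistic fit.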

[1] = antagonistic activity for the human P2X7 receptor, read-out: IC50
[2] = 1321N1 cells stably expressing human P2X7 receptor, BzATP stimulation, Yo-Pro uptake, read-out: IC50 (antagonistic activity for the human P2X7 receptor)

Row | Structure (SMILES) | IC50 [1] [nM] | IC50 [2] [nM]
1 | COc1cn(Cc2cc(F)c(F)c(F)c2)c(Nc2cc(OC(C)C)ccc2C)nc1=O [Compound I-0633] | < 10 | 
2 | COc1cn(Cc2ccc(C(F)(F)F)c(F)c2)c(Nc2cccc(Cl)c2C)nc1=O [Compound I-0634] | 100 to 500 | 
3 | COc1cn(Cc2ccc(F)c(C(F)(F)F)c2)c(Nc2cccc(Cl)c2C)nc1=O [Compound I-0635] | 10 to 100 | 
4 | COc1cn(Cc2ccc(F)c(Cl)c2)c(Nc2cccc3occc23)nc1=O [Compound I-0636] |  | 50
5 | CCc1ccc(OC)cc1Nc1nc(=O)c(OC)cn1Cc1cc(F)cc(F)c1 [Compound I-0637] | < 10 | 
6 | COc1cccc(Nc2nc(=O)c(OC)cn2Cc2cc(F)cc(F)c2)c1Cl [Compound I-0638] | < 10 | 
7 | COc1ccc(Cl)c(Nc2nc(=O)c(OC)cn2Cc2cc(F)cc(F)c2)c1 [Compound I-0639] | 10 to 100 | 
8 | COc1cn(Cc2cc(F)cc(F)c2)c(Nc2cccc3occc23)nc1=O [Compound I-0640] | 10 to 100 | 
9 | COc1cn(Cc2cccc(F)c2)c(Nc2cccc(OC(F)F)c2C)nc1=O [Compound I-0641] | 10 to 100 | 
10 | COc1cccc(Nc2nc(=O)c(OC)cn2Cc2cccc(F)c2)c1C [Compound I-0642] | < 10 | 
11 | COc1cn(Cc2cccc(F)c2)c(Nc2cccc(C)c2Cl)nc1=O [Compound I-0643] | 10 to 100 | 
12 | COc1cn(Cc2cccc(F)c2)c(Nc2cc(C)ccc2C)nc1=O [Compound I-0644] | 10 to 100 | 
13 | COc1cn(Cc2ccc(F)c(F)c2)c(Nc2cc(C)cc3[nH]ccc23)nc1=O [Compound I-0645] | 10 to 100 | 
14 | COc1cn(Cc2ccc(F)c(F)c2)c(Nc2cc(N3CCCC3=O)ccc2C)nc1=O [Compound I-0646] | 10 to 100 | 
15 | COc1cn(Cc2cc(F)cc(Cl)c2)c(Nc2cc(N3CCCC3=O)ccc2C)nc1=O [Compound I-0647] | 10 to 100 | 
16 | COc1cn(Cc2cc(F)cc(F)c2)c(Nc2cc(N3CCCC3=O)ccc2C)nc1=O [Compound I-0648] | 10 to 100 | 
17 | COc1cn(Cc2cc(F)cc(Cl)c2)c(Nc2cc(C)cc3[nH]ccc23)nc1=O [Compound I-0649] | 10 to 100 | 
18 | COc1cn(Cc2cc(F)cc(F)c2)c(Nc2cc(C)cc3[nH]ccc23)nc1=O [Compound I-0650] | 10 to 100 | 
19 | COc1cn(Cc2cc(F)cc(Cl)c2)c(Nc2cccc3c(=O)[nH]ccc23)nc1=O [Compound I-0651] | 10 to 100 | 
20 | COc1cn(Cc2cc(F)cc(F)c2)c(Nc2cccc3c(=O)[nH]ccc23)nc1=O [Compound I-0652] |  | 34
21 | COc1cn(Cc2ccc(F)c(F)c2)c(Nc2cc(-n3cccc3)ccc2C)nc1=O [Compound I-0653] | < 10 | 
22 | COc1cn(Cc2cc(F)cc(Cl)c2)c(Nc2cc(-n3cccc3)ccc2C)nc1=O [Compound I-0654] | 10 to 100 | 
23 | COc1cn(Cc2cc(F)cc(F)c2)c(Nc2cc(-n3cccc3)ccc2C)nc1=O [Compound I-0655] | 10 to 100 | 
24 | CCc1cc(Br)ccc1Nc1nc(=O)c(OC)cn1Cc1cc(F)cc(Cl)c1 [Compound I-0656] | 10 to 100 | 
25 | CCc1ccc(OC)cc1Nc1nc(=O)c(OC)cn1Cc1cc(F)cc(Cl)c1 [Compound I-0657] | 10 to 100 | 
26 | COc1cn(Cc2ccccc2)c(Nc2cc(-c3ccc(C)o3)ccc2C)nc1=O [Compound I-0658] | 10 to 100 | 
27 | COc1cn(Cc2ccc(F)c(Cl)c2)c(Nc2cc(-c3ccc(C)o3)ccc2C)nc1=O [Compound I-0659] | 10 to 100 | 

Row | Structure (SMILES) | IC50 [1] [nM] | IC50 [2] [nM]
28 | COc1cn(Cc2ccc(F)cc2)c(Nc2cccc(OC(F)F)c2C)nc1=O [Compound I-0660] | 10 to 100 | 
29 | COc1cccc(Nc2nc(=O)c(OC)cn2Cc2ccc(F)cc2)c1C [Compound I-0661] | < 10 | 
30 | COc1cn(Cc2ccc(F)cc2)c(Nc2cccc(C)c2Cl)nc1=O [Compound I-0662] | 10 to 100 | 
31 | COc1cn(Cc2ccccc2)c(Nc2cc(-c3cnccn3)ccc2C)nc1=O [Compound I-0663] | 10 to 100 | 
32 | COc1cn(Cc2ccc(F)c(Cl)c2)c(Nc2cc(-c3cnccn3)ccc2C)nc1=O [Compound I-0664] | < 10 | 
33 | COc1cn(Cc2ccc(F)c(F)c2)c(Nc2cc3sc(C)nc3cc2C)nc1=O [Compound I-0665] | < 10 | 
34 | COc1cn(Cc2cc(F)cc(Cl)c2)c(Nc2cc(Cl)c(Cl)cc2C)nc1=O [Compound I-0666] | 100 to 500 | 
35 | COc1cn(Cc2cc(F)cc(Cl)c2)c(Nc2cc(-c3nnco3)ccc2C)nc1=O [Compound I-0667] | 10 to 100 | 
36 | COc1cn(Cc2cc(F)cc(Cl)c2)c(Nc2cc(-c3ncco3)ccc2C)nc1=O [Compound I-0668] | 10 to 100 | 
37 | COc1cn(Cc2cc(F)cc(Cl)c2)c(Nc2cc3sc(C)nc3cc2C)nc1=O [Compound I-0669] | 10 to 100 | 
38 | COc1cn(Cc2cc(F)cc(Cl)c2)c(Nc2cccc3sccc23)nc1=O [Compound I-0670] |  | 20
39 | COc1cc(C)c(Nc2nc(=O)c(OC)cn2Cc2cccc(Cl)c2)cc1Cl [Compound I-0671] | < 10 | 
40 | COc1cc(C)c(Nc2nc(=O)c(OC)cn2Cc2cc(F)cc(Cl)c2)cc1Cl [Compound I-0672] | < 10 | 
41 | CCc1ccc(OC)cc1Nc1nc(=O)c(OC)cn1Cc1cc(F)c(F)c(F)c1 [Compound I-0673] | < 10 | 
42 | CCc1ccccc1Nc1nc(=O)c(OC)cn1Cc1ccc(F)c(F)c1 [Compound I-0674] | 10 to 100 | 
43 | COc1ccccc1Nc1nc(=O)c(OC)cn1Cc1ccc(F)c(F)c1 [Compound I-0675] |  | 190
44 | CCOc1ccc(Nc2nc(=O)c(OC)cn2Cc2ccccc2)c(C)c1 [Compound I-0676] | 100 to 500 | 
45 | CCOc1ccc(Nc2nc(=O)c(OC)cn2Cc2cccc(Cl)c2)c(C)c1 [Compound I-0677] | 10 to 100 | 
46 | CCOc1ccc(Nc2nc(=O)c(OC)cn2Cc2ccc(F)c(F)c2)c(C)c1 [Compound I-0678] | < 10 | 
47 | CCOc1ccc(Nc2nc(=O)c(OC)cn2Cc2ccc(F)c(Cl)c2)c(C)c1 [Compound I-0679] | < 10 | 
48 | CCOc1ccc(Nc2nc(=O)c(OC)cn2Cc2cc(F)cc(F)c2)c(C)c1 [Compound I-0680] | 10 to 100 | 
49 | CCOc1ccc(Nc2nc(=O)c(OC)cn2Cc2cc(F)cc(Cl)c2)c(C)c1 [Compound I-0681] | 10 to 100 | 
50 | COc1cn(Cc2cc(F)cc(Cl)c2)c(Nc2cccc(SC)c2C)nc1=O [Compound I-0682] | 10 to 100 | 
51 | COc1cccc(Nc2nc(=O)c(OC)cn2Cc2ccc(F)c(Cl)c2)c1Cl [Compound I-0683] | < 10 | 
52 | COc1cn(Cc2cc(F)cc(F)c2)c(Nc2cc(-c3cnccn3)ccc2C)nc1=O [Compound I-0684] | 10 to 100 | 
53 | COc1cn(Cc2ccc(F)c(F)c2)c(Nc2ccccc2C)nc1=O [Compound I-0685] | 10 to 100 | 
54 | COc1cc(Nc2nc(=O)c(OC)cn2Cc2ccc(F)c(Cl)c2)c(C)cc1F [Compound I-0686] | < 10 | 

Row | Structure (SMILES) | IC50 [1] [nM] | IC50 [2] [nM]
55 | CCc1cc2c(cc1Nc1nc(=O)c(OC)cn1Cc1ccccc1)OCO2 [Compound I-0687] | 10 to 100 | 
56 | CCc1cc2c(cc1Nc1nc(=O)c(OC)cn1Cc1ccc(F)c(Cl)c1)OCO2 [Compound I-0688] | < 10 | 
57 | COc1cn(Cc2ccc(F)c(F)c2)c(Nc2cccc3c(=O)[nH]ccc23)nc1=O [Compound I-0689] | 10 to 100 | 
58 | COc1cn(Cc2ccccc2)c(Nc2cc(-c3cccnc3)ccc2C)nc1=O [Compound I-0690] | 10 to 100 | 
59 | COc1cn(Cc2ccccc2)c(Nc2cc(OC(F)(F)F)ccc2C)nc1=O [Compound I-0691] | 100 to 500 | 
60 | COc1cn(Cc2ccc(F)c(Cl)c2)c(Nc2cc(OC(F)(F)F)ccc2C)nc1=O [Compound I-0692] | 10 to 100 | 
61 | COc1cn(Cc2ccc(F)c(F)c2)c(Nc2cc(OC(F)(F)F)ccc2C)nc1=O [Compound I-0693] | 10 to 100 | 
62 | COc1cn(Cc2cc(F)cc(Cl)c2)c(Nc2cc(OC(F)(F)F)ccc2C)nc1=O [Compound I-0694] | 100 to 500 | 
63 | COc1cn(Cc2cc(F)cc(F)c2)c(Nc2cc(OC(F)(F)F)ccc2C)nc1=O [Compound I-0695] | 10 to 100 | 
64 | COc1cn(Cc2ccc(F)c(Cl)c2)c(Nc2cc(-c3cccnc3)ccc2C)nc1=O [Compound I-0696] | < 10 | 
65 | COc1cn(Cc2cc(F)c(F)c(F)c2)c(Nc2cc3sc(C)nc3cc2C)nc1=O [Compound I-0697] | < 10 | 
66 | COc1cc(Cn2cc(OC)c(=O)nc2Nc2cccc(Cl)c2C)ccc1F [Compound I-0698] |  | 100
67 | Cc1ccc(-c2nnco2)cc1Nc1nc(=O)c(Cl)cn1Cc1cc(F)cc(F)c1 [Compound I-0699] | < 10 | 
68 | Cc1ccc(N2CCCC2=O)cc1Nc1nc(=O)c(F)cn1Cc1cc(F)cc(F)c1 [Compound I-0700] | < 10 | 
69 | Cc1ccc(N2CCCC2=O)cc1Nc1nc(=O)c(Cl)cn1Cc1cc(F)cc(F)c1 [Compound I-0701] | < 10 | 
70 | O=c1nc(Nc2cccc3c(=O)[nH]ccc23)n(Cc2cc(F)cc(F)c2)cc1F [Compound I-0703] |  | 16
71 | COc1cn(Cc2cc(F)c(F)c(F)c2)c(Nc2cccc(SC)c2C)nc1=O [Compound I-0704] | < 10 | 
72 | Cc1cc(Nc2nc(=O)c(F)cn2Cc2cc(F)cc(F)c2)c2cc[nH]c2c1 [Compound I-0705] | < 10 | 
73 | Cc1cc(Nc2nc(=O)c(Cl)cn2Cc2cc(F)cc(F)c2)c2cc[nH]c2c1 [Compound I-0706] |  | 15
74 | COc1cn(Cc2cc(F)c(F)c(F)c2)c(Nc2cc3c(cc2C)OCCO3)nc1=O [Compound I-0708] | < 10 | 
75 | COc1cn(Cc2cc(F)cc(F)c2)c(Nc2cc3c(cc2C)OCCO3)nc1=O [Compound I-0709] | < 10 | 
76 | COc1cn(Cc2cc(F)cc(Cl)c2)c(Nc2cc3c(cc2C)OCCO3)nc1=O [Compound I-0710] | 10 to 100 | 
77 | COc1cn(Cc2ccccc2)c(Nc2cc3c(cc2C)OC(F)(F)O3)nc1=O [Compound I-0711] | 100 to 500 | 
78 | COc1cn(Cc2cc(F)c(F)c(F)c2)c(Nc2cc(C)c(F)cc2C)nc1=O [Compound I-0712] | < 10 | 
79 | CCOc1cn(Cc2ccccc2)c(Nc2cc(C)c(OC)cc2C)nc1=O [Compound I-0713] | < 10 | 
